In US20120035206A1, “PREPARATION AND APPLICATION OF NOVEL ANTIBACTERIAL AND ANTICANCER COMPOUNDS AND THEIR DERIVATIVES” (priority 2009, published 2012):
≈ marks a conversion by molar mass, not a printed value.

Assays:
Type in all cases: cell-based
C. Krusei = experiment: In vitro antibacterial (antifungal) test, two-fold dilution MIC; conditions: Pichia kudriavzevii, RPMI 1640, culture 2-7 days
Protocol: (§1) In vitro antibacterial experiments of 25 compounds as anti-bacterial and anti-cancer compounds in the patent were tested using 14 kinds of bacteria. Tested bacteria: C. albicans, C. tropicalis, C. neoformans, E. floccosum, M. gypseum, A. niger, S. schenekn, C. parapsilosis, C. glabrata, C. Krusei, Trichoderma, Gibberella, Setrosphaeria turcica, Fusarium Oxysporum Vasinfectum. (Bacteria were from the Dermatology Hospital of Chinese Academy of Medical Sciences, Nanjing, China.)
(§2) The Preparation of tested Bacteria solution was following: incubated Bacteria were added to 5 ml physiological saline, and then they were mashed and placed with ultrasound. The solution was fully mixed, and insoluble substances were removed. The treated solution was called the original bacterium solution. In the test, the bacteria concentration in the original bacterium solution was adjusted to […].
(§3) Tested Methods: the tested compounds were dissolved in dimethyl sulfoxide. and the solution was diluted with sterile distilled water. And the distilled solution was added to sterilized RPMI 1640 medium. The concentration of the compounds were adjusted to 256, 128, 64, 32, 16, 8, 4, 2, 1, 0.5, 0.25, 0.125 ug*ml-1. Then the adjusted solutions were inoculated with tested bacteria, and the tested systems were placed in the constant temperature oven to culture for 2-7 days. The concentration at which there was no growing of fungi was taken as the minimum inhibitory concentration (MIC).

C. albicans = experiment: as above; conditions: Candida albicans, read-out: MIC C. albicas
Protocol: as §1, §2, §3

C. glabrata = experiment: as above; conditions: Nakaseomyces glabratus, RPMI 1640, culture 2-7 days
Protocol: as §1, §2, §3

C. neoformans = experiment: as above; conditions: Cryptococcus neoformans, RPMI 1640, culture 2-7 days
Protocol: as §1, §2, §3

C. parapsilosis = experiment: as above; conditions: Lodderomyces parapsilosis, RPMI 1640, culture 2-7 days
Protocol: as §1, §2, §3

C. tropicalis = experiment: as above; conditions: Candida tropicalis, RPMI 1640, culture 2-7 days
Protocol: as §1, §2, §3

S. schenekn = experiment: as above; conditions: RPMI 1640, culture 2-7 days
Protocol: as §1, §2, §3

E. floccosum = experiment: as above; conditions: Epidermophyton floccosum, RPMI 1640, culture 2-7 days
Protocol: as §1, §2, §3

[1] = test system: Fusarium oxysporum vasinfectum; experiment: as above; conditions: RPMI 1640, culture 2-7 days
Protocol: as §1, §2, §3

M. gypseum = experiment: as above; conditions: Nannizzia gypsea, RPMI 1640, culture 2-7 days
Protocol: as §1, §2, §3

Setosphaeria turcica = experiment: as above; conditions: Exserohilum turcicum, RPMI 1640, culture 2-7 days
Protocol: as §1, §2, §3

Terchoderma = experiment: as above; conditions: Trichoderma, RPMI 1640, culture 2-7 days
Protocol: as §1, §2, §3

A375 = experiment: In vitro anticancer MTT experiment; conditions: Homo sapiens, A-375, concentration 5 ug/ml, 48 h or 72 h, read-out: inhibition ratio A375
Protocol: (§4) In vitro anticancer experiments of 25 compounds as anti-bacterial and anti-cancer compounds in the patent were tested. In the test, 14 kinds of cancer cells were used as tested cancer cells. And the results obtained by MTT method were shown in table 2 (the inhibition ratio was obtained when the concentration was 5 ug/ml). Tested Cancer Cells: SGC7901, HTB-38HT-29, CRL-2233NU-398, CRL-1469PANC-1, B0192, HTB-131MDA-453, CRL-1435PC-3, FTC133, AS24391, HTB-95637. (Cancer cells were from Chinese Military Academy of Medical Sciences). Cells Culture: Culture solution was composed of RPMI 1640 medium, 10% (VAT) Fetal calf serum and 0.01% L-glutamine. Cultured cells were maintained at 37° C. in an incubator with 5% CO2. The cells at logarithmic growth phase were used in the experiment. MTT Experiment: Single cell suspension was obtained by digesting cells with 0.25% trypsin. The cells at logarithmic growth phase were collected and seeded in a 96-well plate at a concentration of 6000-7000 cells per well. After culturing for 12 h at 37° C. in the incubator with 5% CO2, the cells were again incubated with the tested compounds of various concentrations for 48 h or 72 h. Pure cultures and cells without drug were taken as blank reference and negative reference, and 8 Wells of each group were taken. Twenty microliter of MTT (5 mg/mL) was added to each well, and the mixed solutions were incubation for 4 h. The formazan product was dissolved by dimethyl sulfoxide (DMSO, 150 μL), and the optical density (O.D.) was read at 570 nm. The Inhibition Ratio was calculated by the following formula: Inhibition Ratio=(Anegative control−Asample)/(Anegative control−Ablank control)

AS24391 = experiment: In vitro anticancer MTT experiment; conditions: concentration 5 ug/ml, 48 h or 72 h, read-out: inhibition ratio AS24391
Protocol: as §4

B01092 = experiment: In vitro anticancer MTT experiment; conditions: concentration 5 ug/ml, 48 h or 72 h, read-out: inhibition ratio B01092
Protocol: as §4

CRL-1435PC-3 = experiment: In vitro anticancer MTT experiment; conditions: concentration 5 ug/ml, 48 h or 72 h, read-out: inhibition ratio CRL-1435PC-3
Protocol: as §4

CRL-2233SNU-398 = experiment: In vitro anticancer MTT experiment; conditions: concentration 5 ug/ml, 48 h or 72 h, read-out: inhibition ratio CRL-2233SNU-398
Protocol: as §4

FTC 133 = experiment: In vitro anticancer MTT experiment; conditions: Homo sapiens, concentration 5 ug/ml, 48 h or 72 h, read-out: inhibition ratio FTC 133
Protocol: as §4

HTB-131MDA-MB-453 = experiment: In vitro anticancer MTT experiment; conditions: concentration 5 ug/ml, 48 h or 72 h, read-out: inhibition ratio HTB-131MDA-MB-453
Protocol: as §4

HTB-38HT-29 = experiment: In vitro anticancer MTT experiment; conditions: concentration 5 ug/ml, 48 h or 72 h, read-out: inhibition ratio HTB-38HT-29
Protocol: as §4

HTB-94 = experiment: In vitro anticancer MTT experiment; conditions: concentration 5 ug/ml, 48 h or 72 h, read-out: inhibition ratio HTB-94
Protocol: as §4

HTB-95637 = experiment: In vitro anticancer MTT experiment; conditions: concentration 5 ug/ml, 48 h or 72 h, read-out: inhibition ratio HTB-95637
Protocol: as §4

L1210 = experiment: In vitro anticancer MTT experiment; conditions: Mus musculus, concentration 5 ug/ml, 48 h or 72 h, read-out: inhibition ratio L1210
Protocol: as §4

L428 = experiment: In vitro anticancer MTT experiment; conditions: Homo sapiens, L-428, concentration 5 ug/ml, 48 h or 72 h, read-out: inhibition ratio L428
Protocol: as §4

CRL-1469PANC-1 = experiment: In vitro anticancer MTT experiment; conditions: concentration 5 ug/ml, 48 h or 72 h, read-out: inhibition ratio CRL-1469PANC-1
Protocol: as §4

SGC7901 = experiment: In vitro anticancer MTT experiment; conditions: Homo sapiens, SGC-7901, concentration 5 ug/ml, 48 h or 72 h, read-out: inhibition ratio SGC7901
Protocol: as §4

Row | Structure (SMILES) | MIC (C. Krusei) | MIC (C. albicans) | MIC (C. glabrata) | MIC (C. neoformans) | MIC (C. parapsilosis) | MIC (C. tropicalis) | MIC (S. schenekn) | MIC (E. floccosum) | MIC [1] | MIC (M. gypseum) | MIC (Setosphaeria turcica) | MIC (Terchoderma) | inhibition at 5 µg/mL (A375) | inhibition at 5 µg/mL (AS24391) | inhibition at 5 µg/mL (B01092) | inhibition at 5 µg/mL (CRL-1435PC-3) | inhibition at 5 µg/mL (FTC 133) | inhibition at 5 µg/mL (HTB-38HT-29) | inhibition at 5 µg/mL (HTB-94) | inhibition at 5 µg/mL (HTB-95637) | also measured
1 | O=C1/C(=C\O)CSc2ccc(F)cc21 [Compound 3, 6-fluorine-3-(hydroxylmethene)thiochroman-4-one] | 32 µg/mL (≈ 152 µM) | 32 µg/mL (≈ 152 µM) | 64 µg/mL (≈ 304 µM) | 16 µg/mL (≈ 76.1 µM) | 32 µg/mL (≈ 152 µM) | 32 µg/mL (≈ 152 µM) | 64 µg/mL (≈ 304 µM) | – | – | – | – | – | – | – | – | – | – | – | – | – | –
2 | O=C1/C(=C/Cl)CSc2ccc(F)cc21 [Compound 7, (Z)-3-(chloromethylene)-6-fluorothiochroman-4-one] | 16 µg/mL (≈ 70 µM) | 4 µg/mL (≈ 17.5 µM) | 16 µg/mL (≈ 70 µM) | 16 µg/mL (≈ 70 µM) | 8 µg/mL (≈ 35 µM) | 16 µg/mL (≈ 70 µM) | 2 µg/mL (≈ 8.75 µM) | 4 µg/mL (≈ 17.5 µM) | 32 µg/mL (≈ 140 µM) | 8 µg/mL (≈ 35 µM) | 16 µg/mL (≈ 70 µM) | 8 µg/mL (≈ 35 µM) | 56% | 58.3% | 54.8% | 51.2% | 52.6% | 45.7% | 65.4% | 60.1% | inhibition at 5 µg/mL (CRL-2233SNU-398): 49.9%; inhibition at 5 µg/mL (HTB-131MDA-MB-453): 48.6%; inhibition at 5 µg/mL (L1210): 79.8%; inhibition at 5 µg/mL (L428): 57.3%
3 | Cc1ccc(S/C=C2\CSc3ccc(F)cc3C2=O)cc1F [Compound 12, (Z)-6-fluoro-3-(((3-fluoro-4-methylphenyl)thio)methylene)thiochroman-4-one] | 64 µg/mL (≈ 191 µM) | – | – | 8 µg/mL (≈ 23.9 µM) | – | – | 64 µg/mL (≈ 191 µM) | – | 16 µg/mL (≈ 47.8 µM) | – | – | – | 60.4% | 49% | 48.4% | 56.6% | 54.5% | 43.2% | 47.5% | 60.5% | inhibition at 5 µg/mL (CRL-1469PANC-1): 45.6%; inhibition at 5 µg/mL (L1210): 90.9%; inhibition at 5 µg/mL (L428): 56.8%
4 | O=C1/C(=C/Cl)SCc2ccccc21 [Compound 14, (Z)-3-(chloromethylene)isothiochroman-4-one] | 64 µg/mL (≈ 304 µM) | 4 µg/mL (≈ 19 µM) | 16 µg/mL (≈ 75.9 µM) | 4 µg/mL (≈ 19 µM) | 32 µg/mL (≈ 152 µM) | 32 µg/mL (≈ 152 µM) | 8 µg/mL (≈ 38 µM) | 16 µg/mL (≈ 75.9 µM) | – | 4 µg/mL (≈ 19 µM) | – | – | 45.5% | 36.6% | 56.8% | 48% | 30.4% | 42.6% | 45.6% | 40.5% | inhibition at 5 µg/mL (CRL-1469PANC-1): 40.6%; inhibition at 5 µg/mL (CRL-2233SNU-398): 58.9%; inhibition at 5 µg/mL (HTB-131MDA-MB-453): 56.7%; inhibition at 5 µg/mL (L1210): 78%; inhibition at 5 µg/mL (L428): 34.6%; inhibition at 5 µg/mL (SGC7901): 50.6%
5 | Cc1ccc2c(c1)C(O)/C(=C/Cl)CS2 (centres unmarked) [Compound 17, (Z)-3-(chloromethylene)-6-methylthiochroman-4-ol] | 16 µg/mL (≈ 70.6 µM) | 16 µg/mL (≈ 70.6 µM) | 32 µg/mL (≈ 141 µM) | 16 µg/mL (≈ 70.6 µM) | 16 µg/mL (≈ 70.6 µM) | 4 µg/mL (≈ 17.6 µM) | 32 µg/mL (≈ 141 µM) | 16 µg/mL (≈ 70.6 µM) | – | 4 µg/mL (≈ 17.6 µM) | 16 µg/mL (≈ 70.6 µM) | 32 µg/mL (≈ 141 µM) | – | – | – | – | – | – | – | – | –
6 | Cc1ccc2c(c1)C(O)/C(=C\Cl)CS2 (centres unmarked) [Compound 25, (E)-3-(chloromethylene)-6-methylthiochroman-4-ol] | 16 µg/mL (≈ 70.6 µM) | 4 µg/mL (≈ 17.6 µM) | 8 µg/mL (≈ 35.3 µM) | 16 µg/mL (≈ 70.6 µM) | 16 µg/mL (≈ 70.6 µM) | – | 8 µg/mL (≈ 35.3 µM) | 32 µg/mL (≈ 141 µM) | – | 16 µg/mL (≈ 70.6 µM) | 16 µg/mL (≈ 70.6 µM) | – | – | – | – | – | – | – | – | – | –
7 | O=C1/C(=C\Cl)CSc2ncccc21 [Compound 27, (E)-3-(chloromethylene)-2H-thiopyrano[2,3-b]pyridin-4(3H)-one] | 8 µg/mL (≈ 37.8 µM) | 4 µg/mL (≈ 18.9 µM) | 16 µg/mL (≈ 75.6 µM) | 8 µg/mL (≈ 37.8 µM) | 4 µg/mL (≈ 18.9 µM) | 4 µg/mL (≈ 18.9 µM) | 2 µg/mL (≈ 9.45 µM) | 16 µg/mL (≈ 75.6 µM) | 16 µg/mL (≈ 75.6 µM) | 8 µg/mL (≈ 37.8 µM) | 32 µg/mL (≈ 151 µM) | 4 µg/mL (≈ 18.9 µM) | – | – | – | – | – | – | – | – | –
